Converted amounts (≈) assume the structure as drawn. Where two headings read alike, the source gives them in different places.
Assays:
[1] = system: S. aureus Smith; assay: Protective dose, mice infected with lethal inoculum, oral treatment, S. aureus Smith; type: in vivo; conditions: Staphylococcus aureus, po, 120 h, oral; separate run of Compound 42 and BMY28100; cephalexin/cefadroxil controls not available; read-out: Protective dose (PD50), S. aureus Smith
[2] = system: bacteria; assay: Antibacterial activity, general statements; conditions: in words
[3] = system: Gp Ia, Gp Ib, Gn Ia organisms of Table 2; assay: Test medium comparison, agar dilution MIC, Mueller-Hinton agar versus nutrient agar
[4] = system: Gp Ib: S. aureus 193, BX-1633-2 A9606, A15092, Russell, A9602; conditions: Staphylococcus aureus
[5] = system: Gp Ia: S. aureus Smith A9537, A9497, Terajima, A9534, A9601; conditions: Staphylococcus aureus

SMILES: C/C=C\C1=C(C(=O)O)N2C(=O)[C@@H](NC(=O)[C@H](N)c3ccc(O)c(OC)c3)[C@H]2SC1 [Compound 42, 7β-[D(-)-2-Amino-2-(4-hydroxy-3-methoxyphenyl)acetamido]-3-[(Z)-1-propen-1-yl]-3-cephem-4-carboxylic Acid]
- ED50 [1]: 0.09 mg/kg
- antibacterial activity [2]: high in vitro and in vivo activity
- difference in MIC between the two media [3]: less than three fold
- MIC ([4]; read-out: Minimum Inhibitory Concentration Gp Ib, Mueller-Hinton agar, not part of run 1, tested separately, average of five organisms): 1.2 µg/mL (≈ 2.86 µM)
- MIC ([4]; read-out: Minimum inhibitory Concentration Gp Ib, Test Medium Comparison, A: Mueller-Hinton agar, average values): 1.2 µg/mL (≈ 2.86 µM)
- MIC ([4]; read-out: Minimum inhibitory Concentration Gp Ib, Test Medium Comparison, B: Nutrient agar, average values): 0.4 µg/mL (≈ 0.954 µM)
- MIC ([5]; read-out: Minimum Inhibitory Concentration Gp Ia, Mueller-Hinton agar, not part of run 1, tested separately, average of five organisms): 0.35 µg/mL (≈ 0.834 µM)
- MIC ([5]; read-out: Minimum inhibitory Concentration Gp Ia, Test Medium Comparison, A: Mueller-Hinton agar, average values): 0.35 µg/mL (≈ 0.834 µM)
- MIC ([5]; read-out: Minimum inhibitory Concentration Gp Ia, Test Medium Comparison, B: Nutrient agar, average values): 0.23 µg/mL (≈ 0.548 µM)

— patent US4520022A, “Substituted vinyl cephalosporins” (priority 1983, dated 1985)
